Results from patent publication US20110020362A1, “Adrenergic stimulation mediates hypersensitivity by inducing nerve growth factor expression” (priority 2009, published 2011).
Entries after “also recorded” stand apart in the source; their conditions may differ.

What was measured:
nerve growth factor = assay: Nerve growth factor expression in distal colon tissue strips incubated in vitro with norepinephrine; assay type: cell-based, rat
Description: The distal colon, about 6 cm long was opened along the mesentery and dissected free of mucosa/submucosa and submucosal plexus. Tissues were either snap frozen in liquid nitrogen or washed in Hanks balanced salt solution and incubated in DME+10% fetal calf serum+penicillin/streptomycin containing norepinephrine for 24-hours. Tissue was homogenized in PBS+protease inhibitor cocktail purchased from Sigma and centrifuged at 13,000 g for 10 minutes. Nerve growth factor protein was measured by ELISA from R&D Systems (Minneapolis, Minn.).

[1] = tested on: TL colon dorsal root ganglia neurons; assay: Electrophysiology of TL colon dorsal root ganglia neurons incubated in vitro with nerve growth factor; assay type: cell-based, rat; settings: 24 hours in vitro, high (250 ng/mL) vs low (2.5 ng/mL)
Description: The lipid soluble fluorescent dye 1,1′dioleyl-3,3,3′,3′-tetramethylindocarbocyanine methanesulfonate (DiI-I), 25 mg in 0.5 mL methanol, was injected in 2 μL volumes at eight to ten sites in distal colon wall starting at the pelvic girdle and moving toward the cecum. TL dorsal root ganglia neurons were isolated from dorsal root ganglia T13, L1 and L2 were dissected out and put in an ice-cold, oxygenated dissecting solution, containing (in mM): 130 NaCI, 5 KCI, 2 KH2PO4, 1.5 CaCl2, 6 MgSO4, glucose, and 10 HEPES, pH 7.2 (osmolarity, 305 mOsm), as described (10). Connective tissue free ganglia were transferred to a 10 ml dissecting solution containing collagenase D (1.8 mg/mL, Roche) and trypsin (1.0 mg/mL; Sigma, St. Louis, Mo.), and incubated for 1.5 hours at 34.5° C. DRGs are then taken from the enzyme solution, washed, and put in 2 mL of the dissecting solution containing DNase (0.5 mg/mL; Sigma). Cells were subsequently dissociated by trituration with fire-polished glass pipettes and placed on acid-cleaned glass cover slips. […] Whole cell currents and voltage were recorded with Dagan 3911 patch clamp amplifier; and data were acquired and analyzed by pCLAMP 9.2 (Axon Instruments). […]

[2] = exogenous administration; cited from earlier work
trkA = assay: Western blot of trkA expression in dorsal root ganglia after intrathecal oligonucleotide; assay type: in vivo, rat
Description: (§1) A catheter (ReCathco) was inserted through the occipital membrane onto the top of the spinal cord. The end of the catheter rested at about L1. After measurement of baseline response to colorectal distension, the catheter was primed with the appropriate solution and connected to subcutaneously implanted osmotic pump (Durect Corporation, Cupertino, Calif.) filled with appropriate solution. The pump delivered a constant infusion of 0.93 μL/hour for 10.6 days. K252a, a non-specific antagonist of tyrosine kinase receptors (trk) including the high affinity trkA receptors (11), was dissolved in DMSO and administered in sterile saline containing 10% DMSO at a concentration of 0.067 mg/mL. Each rat received an initial bolus infusion of 0.67 μg followed by 1.5 μg/day from the osmotic pump. Previously validated anti-sense and missense oligonucleotides were used (12), TrkA antisense: […] (SEQ ID NO: 1) and mismatch: […] (SEQ ID NO: 2). Oligos were HPLC purified and purchased from Invitrogen. Rats received an initial bolus dose of 10 nmole in 10 uL. The catheter was attached to the pump, which delivered oligo at a rate of 0.5 nmole/hour. Stress protocol started 24-hours after attachment of the pump. Nerve growth factor neutralizing antibody (16 μg/kg i.p. in 0.5) was purchased from R&D systems (Minneapolis, Minn.) and reconstituted in phosphate buffered saline (PBS). Control rats received PBS containing an equal concentration of goat non-immune serum.

[3] = tested on: rats subjected to heterotypic chronic stress; assay: Viscero-motor response (VMR) to graded colorectal distension after nine-day heterotypic chronic stress; assay type: in vivo, rat; settings: for heterotypic chronic stress-induced increase in viscero-motor response to colorectal distension: entire nine-day HeCS, post-HeCS vs baseline
Description: Two electrodes were implanted under general 2% isofluorane anesthesia in the external oblique abdominal muscle and exteriorized in the subscapular region. Rats were allowed one week to recover from surgery. Under 2% isofluoruthane anesthesia, a 5 cm long balloon constructed from a surgical glove finger and attached to tygon tubing was inserted 7 cm into the descending colon and rectum. Rats were placed in small Lucite cubicles (20×8×8 cm) and allowed to adapt for 30 minutes. colorectal distension was performed by rapidly inflating the balloon to constant pressures: 20, 30, 40, 50, 60 & 80 mm Hg, for 20 seconds followed by 2-minute rest. Electromygraphic (EMG) activity from the external oblique muscle was recorded on Biopac equipment (Biopac Systmes, Inc., Santa Barbara, Calif.). The EMG signal was amplified, filtered at 300 Hz and digitized. The area under the curve (AUC) for the EMG signal during each 20 seconds of distention was calculated using Acknowledge software (Biopac Systmes, Inc). The net value for each distension period was calculated by subtracting the baseline value derived from the average AUC for 20 seconds before and 20 seconds after the distention period.
as §1

[4] = tested on: TL colon dorsal root ganglia neurons; assay: Patch-clamp electrophysiology of DiI-labeled colon-specific TL dorsal root ganglia neurons from treated rats; assay type: in vivo, rat
Description: The lipid soluble fluorescent dye 1,1′dioleyl-3,3,3′,3′-tetramethylindocarbocyanine methanesulfonate (DiI-I), 25 mg in 0.5 mL methanol, was injected in 2 μL volumes at eight to ten sites in distal colon wall starting at the pelvic girdle and moving toward the cecum. TL dorsal root ganglia neurons were isolated from dorsal root ganglia T13, L1 and L2 were dissected out and put in an ice-cold, oxygenated dissecting solution, containing (in mM): 130 NaCI, 5 KCI, 2 KH2PO4, 1.5 CaCl2, 6 MgSO4, glucose, and 10 HEPES, pH 7.2 (osmolarity, 305 mOsm), as described (10). Connective tissue free ganglia were transferred to a 10 ml dissecting solution containing collagenase D (1.8 mg/mL, Roche) and trypsin (1.0 mg/mL; Sigma, St. Louis, Mo.), and incubated for 1.5 hours at 34.5° C. DRGs are then taken from the enzyme solution, washed, and put in 2 mL of the dissecting solution containing DNase (0.5 mg/mL; Sigma). Cells were subsequently dissociated by trituration with fire-polished glass pipettes and placed on acid-cleaned glass cover slips. Dorsal root ganglia neurons containing the retrograde label were identified as bright red neurons using fluorescent microscopy with a rhodamine filter (excitation 546, barrier filter at 580) and Hoffman contrast optics. For current clamp experiment, cells were superfused (1.5 mL/min) at room temperature with control external solution containing (in mM): 130 NaCI, 5 KCI, 2 KH2PO4, 2.5 CaCl2, 1 MgCl2, 10 HEPES, and 10 glucose, pH adjusted to 7.4 with NaOH (295-300 mOsm). Recording pipettes pulled from borosilicate glass tubing had resistance of 1-4 MΩ. For perforated patch recording, pipette tip was initially filled with amphotericin-free pipette solution, containing (in mM): 100 KmeSO3, 40 KCI, and 10 HEPES, pH 7.25 adjusted with KOH (osmolarity, 290 mOsm). The pipette was then backfilled with same pipette solution containing amphotericin B (300 μg/ml). Whole cell currents and voltage were recorded with Dagan 3911 patch clamp amplifier; and data were acquired and analyzed by pCLAMP 9.2 (Axon Instruments). The currents were filtered at 2-5 kHz and sampled at 50 or 100 μsec per point.
as §1

[5] = tested on: mucosal afferent mechanoreceptors; settings: IBS patients; cited from earlier work
[6] = in vitro incubation for 24 hours
[7] = intrathecal oligonucleotide, bolus 10 nmole then 0.5 nmole/hour
[8] = HeCS rats, 200 μg/kg intraluminal in distal colon one day before HeCS
[9] = sham stressed rats, 200 μg/kg intraluminal in distal colon
[10] = HeCS rats, intrathecal application

NC[C@H](O)c1ccc(O)c(O)c1 [norepinephrine]
expression of nerve growth factor in mucosa/submucosa (nerve growth factor; [6]): concentration-dependently increased
expression of nerve growth factor in muscularis externa/serosa (nerve growth factor; [6]): concentration-dependently increased

astressin
norepinephrine-induced expression of nerve growth factor in mucosa/submucosa (nerve growth factor; in vitro, with norepinephrine): blocked this increase; also recorded: blocked this effect
norepinephrine-induced expression of nerve growth factor in muscularis externa/serosa (nerve growth factor; in vitro, with norepinephrine): had no effect; also recorded: no significant effect

nerve growth factor: neurotrophin, nerve growth factor (NGF), applied to neurons in vitro at 250 or 2.5 ng/mL
resting membrane potential [1]: significant decline
rheobase [1]: significant decline
inflammatory hyperalgesia [2]: mimics inflammatory hyperalgesia

trkA AS oligonucleotide: TrkA antisense: CATCAACGAAGTCACCAGACCG (SEQ ID NO: 1), previously validated, HPLC purified, from Invitrogen (listed as DNA, chemistry not given here)
expression of trkA in TL dorsal root ganglia, relative to rats treated with MM oligonucleotide (trkA; intrathecal, catheter tip at about L1): about 50%
trkA levels in LS DRG (trkA; several segments caudal to the catheter tip, vs MM oligonucleotide): No significant difference
trkA levels in thoracic dorsal root ganglion (trkA; several segments rostral to the catheter tip, vs MM oligonucleotide): No significant difference
heterotypic chronic stress-induced increase in viscero-motor response to colorectal distension [3, 7]: no significant difference
heterotypic chronic stress-induced increase in viscero-motor response to colorectal distension ([3]; intrathecal oligonucleotide, bolus 10 nmole then 0.5 nmole/hour, listed as anti-sense ODN): suppressed

MM oligonucleotide: mismatch control oligonucleotide: CAACATCGAAGTGACGAGACCG (SEQ ID NO: 2) (listed as DNA, chemistry not given here)
heterotypic chronic stress-induced increase in viscero-motor response to colorectal distension [3, 7]: significant increase

C=C(C)[C@]12C[C@@H](C)[C@@]34O[C@](Cc5ccccc5)(O[C@@H]1[C@@H]3C=C(COC(=O)Cc1ccc(O)c(OC)c1)C[C@]1(O)C(=O)C(C)=C[C@@H]41)O2 [resiniferatoxin]
HeCS-induced increase in the number of action potentials at 2× rheobase [4, 8]: significantly blocked
HeCS-induced reduction in rheobase [4, 8]: significantly blocked
resting membrane potential [4, 9]: no significant effect
rheobase [4, 9]: no significant effect
induction of visceral hypersensitivity to colorectal distension ([3]; desensitization of afferent nerve endings, 200 μg/kg intraluminal in distal colon one day before HeCS): blocked the induction of visceral hypersensitivity

COC(=O)[C@@]1(O)C[C@H]2O[C@]1(C)n1c3ccccc3c3c4c(c5c6ccccc6n2c5c31)C(=O)NC4 [k252a, K252a]
HeCS-induced decrease in rheobase [4, 10]: significantly attenuated
HeCS-induced depolarization of resting membrane potential [4, 10]: significantly attenuated
HeCS-induced increase in the number of action potentials at 2× rheobase [4, 10]: significantly attenuated
HeCS-induced increase in excitability of TL colon dorsal root ganglia neurons ([4]; HeCS rats, intrathecal treatment): blocked
heterotypic chronic stress-induced increase in viscero-motor response to colorectal distension ([3]; intrathecal osmotic pump, bolus 0.67 μg then 1.5 μg/day): no significant difference
heterotypic chronic stress-induced increase in viscero-motor response to colorectal distension ([3]; intrathecal osmotic pump, bolus 0.67 μg then 1.5 μg/day, listed as k252A): suppressed

CCN(CC)CC(=O)Nc1c(C)cccc1C [lidocaine]
pain-perception to rapid balloon distension [5]: does not affect
sensory perception to slow distension [5]: blocks
